Key:
KYSE-30 cells = test: Cancer cell line proliferation assay, ATP-based cell viability (Cell Titre Glow), KYSE-30 (normal CCNE1); conditions: Homo sapiens, KYSE-30 cells (normal CCNE1), concentration that achieves 50% cell growth proliferation inhibition, read-out: KYSE30 Gl50
Experimental: (§1) Cancer cell lines with either normal (KYSE-30) or amplified CCNE1 expression (OVCAR 3 —ovarian cancer) were evaluated for their sensitivity to PKMYT1 inhibitors using Cell Titre Glow assay (Promega G7573) as endpoint to assess cell proliferation. The luminescence signal was read on a PHERAStar FS microplate reader (BMG Labtech). Data analysis was performed using Microsoft Excel® and Gl50 (concentration that achieves 50% cell growth proliferation inhibition) estimates generated with GraphPad Prism v9.

Human PKMYT1 = biological target: T1, Human PKMYT1 (Homo sapiens, UniProt Q99640); test: PKMYT1 biochemical ADP-Glo enzymatic assay; conditions: ADP-Glo
T1 construct: Human PKMYT1 75-362 was cloned as a TEV cleavable 6xHis fusion; 6xHis (TEV cleavable) (cleaved yes); made in house; host or cells: bacterial cells
T1 sequence (Q99640 75-362): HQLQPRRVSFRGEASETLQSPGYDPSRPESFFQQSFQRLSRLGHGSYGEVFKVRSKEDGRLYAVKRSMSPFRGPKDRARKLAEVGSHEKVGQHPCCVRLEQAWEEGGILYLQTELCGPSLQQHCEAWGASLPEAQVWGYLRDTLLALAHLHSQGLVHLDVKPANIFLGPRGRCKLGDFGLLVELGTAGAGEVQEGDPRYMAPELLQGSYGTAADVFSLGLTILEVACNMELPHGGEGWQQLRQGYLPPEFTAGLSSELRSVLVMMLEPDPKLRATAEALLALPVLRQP
Outline: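 IC50 values come from 10-point 3-fold series, with replicates required within 3-fold and r2 >0.9. ADP formed by PKMYT1 intrinsic ATPase (500 uM ATP, 60 min, 26° C.) was quantified by ADP-Glo luminescence. The enzyme was the TEV-cleaved kinase domain 75-362 at 15 nM, in HEPES pH 7.5 buffer.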

WEE1 = biological target: T2, WEE1 (Homo sapiens, UniProt P30291); test: Selectivity versus WEE1 assay (ADP-Glo enzymatic assay); type: biochemical; conditions: for IC50: ADP-Glo; for PKMYT1 vs. WEE1 selectivity: fold difference in selectivity for PKMYT1 over WEE1
T2 construct: purchased Thermo Fisher PR7373A
Outline: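 ADP-Glo luminescent read-out after a 60-min, 26 °C kinase reaction of 15 nM WEE1 with 30 µM ATP, in HEPES pH 7.5 buffer containing MgCl2, EGTA, Brij-35 and 1% DMSO. IC50 accepted only when replicate values agree within 3-fold and curve fit r2 exceeds 0.9.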

OVCAR 3 cells = test: Cancer cell line proliferation assay, ATP-based cell viability (Cell Titre Glow), OVCAR 3 (CCNE1-amplified); conditions: for Selectivity ratio KYSE30 Gl50 vs. OVCAR3 Gl50: KYSE30 (normal CCNE1) GI50 vs. OVCAR 3 (CCNE1-amplified) GI50
Experimental: as §1

[1] = 15 nM PKMYT1 kinase domain, 500 µM ATP, 60 minutes at 26° C., banded
[2] = 15 nM WEE1, 60 minutes at 26° C., banded
[3] = banded, ">N" = at least in this band but could be higher
[4] = PKMYT1 kinase domain 15 nM, banded values

T2 sequence (P30291 whole entry): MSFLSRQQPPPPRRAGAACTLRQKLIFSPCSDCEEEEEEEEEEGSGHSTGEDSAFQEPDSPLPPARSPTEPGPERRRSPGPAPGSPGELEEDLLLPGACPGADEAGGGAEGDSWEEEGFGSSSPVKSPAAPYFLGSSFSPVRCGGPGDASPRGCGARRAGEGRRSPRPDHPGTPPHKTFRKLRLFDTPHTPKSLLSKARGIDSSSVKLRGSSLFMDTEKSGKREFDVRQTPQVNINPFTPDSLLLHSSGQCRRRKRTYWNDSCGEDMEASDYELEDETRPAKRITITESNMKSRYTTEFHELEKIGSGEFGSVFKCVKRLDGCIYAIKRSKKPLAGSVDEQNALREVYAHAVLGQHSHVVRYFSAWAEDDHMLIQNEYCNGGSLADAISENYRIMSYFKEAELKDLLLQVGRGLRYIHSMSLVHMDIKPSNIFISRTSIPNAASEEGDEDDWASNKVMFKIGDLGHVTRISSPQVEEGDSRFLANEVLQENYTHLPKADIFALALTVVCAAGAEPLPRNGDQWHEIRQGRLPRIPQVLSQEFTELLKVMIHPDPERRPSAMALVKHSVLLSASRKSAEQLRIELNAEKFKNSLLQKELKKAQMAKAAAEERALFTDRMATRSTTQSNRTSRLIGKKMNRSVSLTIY

| Compound | IC50 (Human PKMYT1; [1]) | IC50 (WEE1; [2]) | PKMYT1 vs. WEE1 selectivity (WEE1; [3]) | IC50 (Human PKMYT1; [4]) | IC50 (WEE1; WEE1 15 nM, banded values) | PKMYT1 vs. WEE1 selectivity (WEE1; banded) | GI50 (OVCAR 3 cells; Homo sapiens, OVCAR 3 cells (CCNE1-amplified), concentration that achieves 50% cell growth proliferation inhibition, read-out: OVCAR 3 Gl50) | GI50 (KYSE-30 cells) | Selectivity ratio KYSE30 Gl50 vs. OVCAR3 Gl50 (OVCAR 3 cells) |
| --- | --- | --- | --- | --- | --- | --- | --- | --- | --- |
| CCN(CC)C(=O)C(C)n1nc(Nc2ncc(C(=O)Nc3c(C)ccc(O)c3C)s2)cc1C (stereo not shown) [BAA-509, 2-((1-(1-(diethylamino)-1-oxopropan-2-yl)-5-methyl-1H-pyrazol-3-yl)amino)-N-(3-hydroxy-2,6-dimethylphenyl)thiazole-5-carboxamide] |  |  |  | 50 to 1000 nM | > 11000 nM | X (100-<1000 fold) |  | > 5000 nM | Y (>20 fold) |
| Cc1cn(-c2ccncc2)nc1Nc1ncc(C(=O)Nc2c(C)ccc(O)c2C)s1 [BAA-372, N-(3-hydroxy-2,6-dimethylphenyl)-2-((4-methyl-1-(pyridin-4-yl)-1H-pyrazol-3-yl)amino)thiazole-5-carboxamide] | < 50 nM | 50 to 1000 nM | W (10-<100 fold) |  |  |  |  | > 5000 nM | Y (>20 fold) |
| Cc1cn(-c2cccc(C(F)(F)F)c2)nc1Nc1ncc(C(=O)Nc2c(C)ccc(O)c2C)s1 [BAA-370, N-(3-hydroxy-2,6-dimethylphenyl)-2-((4-methyl-1-(3-(trifluoromethyl)phenyl)-1H-pyrazol-3-yl)amino)thiazole-5-carboxamide] | < 50 nM | > 11000 nM | X (100-<1000 fold) |  |  |  |  | 500 to 5000 nM | X (3-20 fold) |
| Cc1ccc(O)c(C)c1NC(=O)c1cnc(Nc2nn(-c3ccccn3)cc2Cl)s1 [BAA-383, 2-((4-chloro-1-(pyridin-2-yl)-1H-pyrazol-3-yl)amino)-N-(3-hydroxy-2,6-dimethylphenyl) thiazole-5-carboxamide] | < 50 nM | > 11000 nM | Y (1000-5000 fold) |  |  |  |  | 500 to 5000 nM | X (3-20 fold) |
| Cc1cn(CC(=O)N2CCCC2C)nc1Nc1ncc(C(=O)Nc2c(C)ccc(O)c2C)s1 (stereo not shown) [BAA-492, N-(3-hydroxy-2,6-dimethylphenyl)-2-((4-methyl-1-(2-(2-methylpyrrolidin-1-yl)-2-oxoethyl)-1H-pyrazol-3-yl)amino)thiazole-5-carboxamide] |  |  |  | < 50 nM | 1000 to 11000 nM | X (100-<1000 fold) |  | > 5000 nM | Y (>20 fold) |
| Cc1ccc(O)c(C)c1NC(=O)c1cnc(Nc2ccn(C3CCC3)n2)s1 [BAA-013, 2-[(1-cyclobutylpyrazol-3-yl)amino]-N-(3-hydroxy-2,6-dimethyl-phenyl)thiazole-5-carboxamide] | < 50 nM | 1000 to 11000 nM | W (10-<100 fold) |  |  |  | 500 to 5000 nM | > 5000 nM | X (3-20 fold) |
| CCOc1ccc(-n2cc(C)c(Nc3ncc(C(=O)Nc4c(C)ccc(O)c4C)s3)n2)cn1 [BAA-369, 2-((1-(6-ethoxypyridin-3-yl)-4-methyl-1H-pyrazol-3-yl)amino)-N-(3-hydroxy-2,6-dimethylphenyl)thiazole-5-carboxamide] | 50 to 1000 nM | > 11000 nM | X (100-<1000 fold) |  |  |  |  | > 5000 nM | Y (>20 fold) |
| Cc1cn(-c2ccc(Cl)cn2)nc1Nc1ncc(C(=O)Nc2c(C)ccc(O)c2C)s1 [BAA-376, 2-((1-(5-Chloropyridin-2-yl)-4-methyl-1H-pyrazol-3-yl)amino)-N-(3-hydroxy-2,6-dimethylphenyl)thiazole-5-carboxamide] | 50 to 1000 nM | > 11000 nM | X (100-<1000 fold) |  |  |  |  | 500 to 5000 nM | Y (>20 fold) |
| Cc1cn(-c2ncc(C(=O)Nc3c(C)ccc(O)c3C)s2)nc1Nc1ncc(C(=O)Nc2c(C)ccc(O)c2C)s1 [BAA-393, N-(3-hydroxy-2,6-dimethylphenyl)-2-((1-(5-((3-hydroxy-2,6-dimethylphenyl)carbamoyl)thiazol-2-yl)-4-methyl-1H-pyrazol-3-yl)amino)thiazole-5-carboxamide] |  |  |  | 50 to 1000 nM | > 11000 nM | X (100-<1000 fold) |  | 500 to 5000 nM | X (3-20 fold) |
| Cc1ccc(O)c(C)c1NC(=O)c1cnc(Nc2cc(C)n(CC(C)C)n2)s1 [BAA-237, N-(3-hydroxy-2,6-dimethylphenyl)-2-((1-isobutyl-5-methyl-1H-pyrazol-3-yl)amino)thiazole-5-carboxamide] | < 50 nM | 1000 to 11000 nM | W (10-<100 fold) |  |  |  |  | 500 to 5000 nM | Y (>20 fold) |
| Cc1cn(CC(C)O)nc1Nc1ncc(C(=O)Nc2c(C)ccc(O)c2C)s1 (stereo not shown) [BAA-499, N-(3-hydroxy-2,6-dimethylphenyl)-2-((1-(2-hydroxypropyl)-4-methyl-1H-pyrazol-3-yl)amino)thiazole-5-carboxamide] |  |  |  | < 50 nM | 1000 to 11000 nM | X (100-<1000 fold) |  | > 5000 nM | Y (>20 fold) |

More lines, main results first:

| IC50 (Human PKMYT1; [1]) | IC50 (WEE1; [2]) | PKMYT1 vs. WEE1 selectivity (WEE1; [3]) | IC50 (Human PKMYT1; [4]) | IC50 (WEE1; WEE1 15 nM, banded values) | PKMYT1 vs. WEE1 selectivity (WEE1; banded) | GI50 (OVCAR 3 cells; Homo sapiens, OVCAR 3 cells (CCNE1-amplified), concentration that achieves 50% cell growth proliferation inhibition, read-out: OVCAR 3 Gl50) | Compound | GI50 (KYSE-30 cells) | Selectivity ratio KYSE30 Gl50 vs. OVCAR3 Gl50 (OVCAR 3 cells) |
| --- | --- | --- | --- | --- | --- | --- | --- | --- | --- |
| < 50 nM | > 11000 nM | Y (1000-5000 fold) |  |  |  |  | COc1ccc(NC(=O)C(C)(C)C)nc1Nc1ncc(C(=O)Nc2c(C)ccc(O)c2C)s1.Cl [BAA-330, N-(3-Hydroxy-2.6-dimethylphenyl)-2-((3-methoxy-6-pivalamidopyridin-2-yl)amino)thiazole-5-carboxamide hydrochloride] | 500 to 5000 nM | Y (>20 fold) |
|  |  |  | < 50 nM | 1000 to 11000 nM | X (100-<1000 fold) |  | COc1cccc(Nc2ncc(C(=O)Nc3c(C)ccc(O)c3C)s2)n1 [BAA-416, N-(3-hydroxy-2,6-dimethylphenyl)-2-((6-methoxypyridin-2-yl)amino)thiazole-5-carboxamide] | 500 to 5000 nM | Y (>20 fold) |
| < 50 nM | 1000 to 11000 nM | X (100-<1000 fold) |  |  |  |  | Cc1ccc(O)c(C)c1NC(=O)c1cnc(Nc2ccn(CC(C)(C)O)n2)s1 [BAA-038] | > 5000 nM | Y (>20 fold) |
| < 50 nM | > 11000 nM | Y (1000-5000 fold) |  |  |  |  | Cc1ccc(O)c(C)c1NC(=O)c1cnc(Nc2cccc(NC(=O)C(C)(C)C)n2)s1 [BAA-339, N-(3-Hydroxy-2.6-dimethylphenyl)-2-((6-pivalamidopyridin-2-yl)amino)thiazole-5-carboxamide] | 500 to 5000 nM | Y (>20 fold) |
|  |  |  | < 50 nM | > 11000 nM | X (100-<1000 fold) |  | Cc1ccc(O)c(C)c1NC(=O)c1cnc(Nc2cccc(OC(C)C)n2)s1 [BAA-429, N-(3-hydroxy-2,6-dimethylphenyl)-2-((6-isopropoxypyridin-2-yl)amino)thiazole-5-carboxamide] | < 500 nM | Y (>20 fold) |
|  |  |  | < 50 nM | 1000 to 11000 nM | X (100-<1000 fold) |  | CCn1cc(C)c(Nc2ncc(C(=O)Nc3c(C)ccc(O)c3C)s2)n1 [BAA-477, 2-((1-ethyl-4-methyl-1H-pyrazol-3-yl)amino)-N-(3-hydroxy-2,6-dimethylphenyl)thiazole-5-carboxamide] | > 5000 nM | Y (>20 fold) |
| 50 to 1000 nM | > 11000 nM | X (100-<1000 fold) |  |  |  |  | Cc1ccc(NC(=O)NC(C)(C)C)nc1Nc1ncc(C(=O)Nc2c(C)ccc(O)c2C)s1.Cl [BAA-336, 2-((6-(3-(tert-butyl)ureido)-3-methylpyridin-2-yl)amino)-N-(3-hydroxy-2,6-dimethylphenyl)thiazole-5-carboxamide hydrochloride] | > 5000 nM | Y (>20 fold) |

Source: patent US20260297042A1, “BIARYLAMIDE DERIVATIVES AND THEIR USE AS PKMYT1 INHIBITORS” (CANCER RESEARCH TECHNOLOGY LIMITED, priority 2023, published 2026)
